In one series the target is T1, histamine H3 receptor (Homo sapiens, UniProt Q9Y5N1).
T1 construct: expressed in transfected cells; host or cells: CHO K1 cells carrying pSwitch, transfected with pGeneH3 and induced with mifepristone; clone 3H3; membranes
Put plainly: Histamine H3 functional antagonist assay ([35S]GTPγS, SPA, membranes of CHO K1 cells expressing the receptor). Format: biochemical. To be noted: histamine-stimulated GTPγS binding, membranes with human H3. An excerpt:
A membrane preparation containing histamine H3 receptors may be prepared in accordance with the following procedures:
(i) Generation of Histamine H3 Cell Line
DNA encoding the human histamine H3 gene (Huvar, A. et al. (1999) Mol. Pharmacol. 55(6), 1101-1107) was cloned into a holding vector, pCDNA3.1 TOPO (InVitrogen) and its cDNA was isolated from this vector by restriction digestion of plasmid DNA with the enzymes BamH1 and Not-1 and ligated into the inducible expression vector pGene (InVitrogen) digested with the same enzymes. The GeneSwitch™ system (a system where in transgene expression is switched off in the absence of an inducer and switched on in the presence of an inducer) was performed as described in U.S. Pat. Nos. 5,364,791; 5,874,534; and 5,935,934. Ligated DNA was transformed into competent DH5α E. coli host bacterial cells and plated onto Luria Broth (LB) agar containing Zeocin™ (an antibiotic which allows the selection of cells expressing the sh ble gene which is present on pGene and pSwitch) at 50 μg ml^−1. Colonies containing the re-ligated plasmid were identified by restriction analysis. DNA for transfection into mammalian cells was prepared from 250 ml cultures of the host bacterium containing the pGeneH3 plasmid and isolated using a DNA preparation kit (Qiagen Midi-Prep) as per manufacturers guidelines (Qiagen).
CHO K1 cells previously transfected with the pSwitch regulatory plasmid (InVitrogen) were seeded at 2×10e6cells per T75 flask in Complete Medium, containing Hams F12 (GIBCOBRL, Life Technologies) medium supplemented with 10% v/v dialysed foetal bovine serum, L-glutamine, and hygromycin ([…]), 24 hours prior to use. Plasmid DNA was transfected into the cells using Lipofectamine plus according to the manufacturers guidelines (InVitrogen). 48 hours post transfection cells were placed into complete medium supplemented with […] Zeocin™.
10-14 days post selection 10 nM Mifepristone (InVitrogen), was added to the culture medium to induce the expression of the receptor. 18 hours post induction cells were detached from the flask using ethylenediamine tetra-acetic acid (EDTA; 1:5000; InVitrogen), following several washes with phosphate buffered saline pH 7.4and resuspended in Sorting Medium containing Minimum Essential Medium (MEM), without phenol red, and supplemented with Earles salts and 3% Foetal Clone II (Hyclone). Approximately 1×10e7 cells were examined for receptor expression by staining with a rabbit polyclonal antibody, 4a, raised against the N-terminal domain of the histamine H3 receptor, incubated on ice for 60 minutes, followed by two washes in sorting medium. Receptor bound antibody was detected by incubation of the cells for 60 minutes on ice with a goat anti rabbit antibody, conjugated with Alexa 488 fluorescence marker (Molecular Probes). Following two further washes with Sorting Medium, cells were filtered through a 50 μm Filcon™ (BD Biosciences) and then analysed on a FACS Vantage SE Flow Cytometer fitted with an Automatic Cell Deposition Unit. Control cells were non-induced cells treated in a similar manner. Positively stained cells were sorted as single cells into 96-well plates, containing Complete Medium containing 500 μg ml^−1 Zeocin™ and allowed to expand before reanalysis for receptor expression via antibody and ligand binding studies. One clone, 3H3, was selected for membrane preparation.
(ii) Membrane Preparation from Cultured Cells
All steps of the protocol are carried out at 4° C. and with pre-cooled reagents. The cell pellet is resuspended in 10 volumes of buffer A2 containing 50 mM N-2-hydroxyethylpiperazine-N′-2-ethanesulfonic acid (HEPES) (pH 7.40) supplemented with […] leupeptin (acetyl-leucyl-leucyl-arginal; Sigma L2884), 25 μg/ml bacitracin (Sigma B0125), 1 mM ethylenediamine tetra-acetic acid (EDTA), 1 mM phenylmethylsulfonyl fluoride (PMSF) and 2×10e-6M pepstain A (Sigma). […]

Consider 24 compounds from patent US20060247227A1, “Substituted piperidines as histamine h3 receptor ligands” (priority 2003, published 2006).

Usually melting point stands for the temperature of the solid-liquid transition. Broadly, the Ki is the equilibrium dissociation constant of an inhibitor or competing ligand from its target. A higher Ki goes with weaker binding.

Molecules are shown by their SMILES. Structures can show the parent of a compound that is named as a salt.

T1 sequence (Q9Y5N1 whole entry): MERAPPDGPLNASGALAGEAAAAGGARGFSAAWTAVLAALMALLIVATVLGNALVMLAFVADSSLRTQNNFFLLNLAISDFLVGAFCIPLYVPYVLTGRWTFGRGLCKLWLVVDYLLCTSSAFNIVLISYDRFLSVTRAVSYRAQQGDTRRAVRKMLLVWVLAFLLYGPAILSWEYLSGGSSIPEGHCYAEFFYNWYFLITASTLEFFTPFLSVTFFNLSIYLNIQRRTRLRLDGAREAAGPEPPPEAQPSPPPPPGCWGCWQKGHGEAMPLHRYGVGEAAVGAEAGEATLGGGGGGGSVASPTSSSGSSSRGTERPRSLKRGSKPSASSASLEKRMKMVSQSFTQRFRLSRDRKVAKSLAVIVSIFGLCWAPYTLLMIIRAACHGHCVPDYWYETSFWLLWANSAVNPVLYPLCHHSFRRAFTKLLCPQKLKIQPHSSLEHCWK

`CNC(=O)c1ccc(N2CCC(OC3CCN(C4CCC4)CC3)CC2)cn1` [Example E38A, 5-{4-[(1-Cyclobutyl-4-piperidinyl)oxy]-1-piperidinyl}-N-methyl-2-pyridinecarboxamide] came in with a melting point of 109.7 °C.
At histamine H3 receptor, `O=C(NCCCCl)c1ccc(N2CCC(OC3CCN(C4CCC4)CC3)CC2)cn1` [Example E107, N-(3-Chloropropyl)-5-{4-[(1-cyclobutyl-4-piperidinyl)oxy]-1-piperidinyl}-2-pyridinecarboxamide hydrochloride] gave a Ki of at most 1 nM.
Still for that read-out and setting: next, `CCCNC(=O)c1cnc(N2CCC(OC3CCN(C(C)C)CC3)CC2)cn1` [Example E77]: at most 1 nM; `O=C(c1cccc(N2CCC(OC3CCN(C4CCC4)CC3)CC2)n1)N1CCOCC1` [Example E65]: under 10 nM; `O=C(NCCCCl)c1ccc(N2CCC(OC3CCN(C4CCC4)CC3)CC2)cc1` [Example E15, N-(3-Chloropropyl)-4-{4-[(1-cyclobutyl-4-piperidinyl)oxy]-1-piperidinyl}benzamide hydrochloride]: at most 1 nM.
The same measure, in the same setting: in the case of `FC(F)(F)c1cnc(N2CCC(OC3CCN(C4CCC4)CC3)CC2)cn1` [Example E84, 2-{4-[(1-Cyclobutyl-4-piperidinyl)oxy]-1-piperidinyl}-5-(trifluoromethyl)pyrazine hydrochloride] it was at most 1 nM; in that of `CC(C)NC(=O)c1cc(N2CCC(OC3CCN(C4CCC4)CC3)CC2)ccn1` [Example E67], under 10 nM; in that of `CNC(=O)c1ccc(N2CCC(OC3CCN(C(C)C)CC3)CC2)cc1` [Example E14], under 10 nM.
The same measure, in the same setting: next, `FC(F)(F)c1ccc(N2CCC(OC3CCN(C4CCC4)CC3)CC2)nn1` [Example E82, 3-{4-[(1-Cyclobutyl-4-piperidinyl)oxy]-1-piperidinyl}-6-(trifluoromethyl)pyridazine hydrochloride]: under 0.316 nM.
As for `CN(C)C(=O)c1ccc(N2CCC(OC3CCN(C4CCC4)CC3)CC2)cn1` [Example E31, 5-{4-[(1-Cyclobutyl-4-piperidinyl)oxy]-1-piperidinyl}-N,N-dimethyl-2-pyridinecarboxamide hydrochloride], the Ki on histamine H3 receptor is at most 1 nM.
On to `CC(C)N1CCC(OC2CCN(c3ccc(C(=O)N(C)C)cn3)CC2)CC1` [Example E51], for which, on histamine H3 receptor, the Ki was under 10 nM.
On the same count and under the same terms, in the case of `CC(C)N1CCC(OC2CCN(c3cccc(C(=O)N4CCCC4)n3)CC2)CC1` [Example E60] it was under 10 nM.
The same measure, in the same setting: next, `O=C(c1cc(N2CCC(OC3CCN(C4CCC4)CC3)CC2)ccn1)N1CCCCC1` [Example E69]: under 10 nM.
The same measure, in the same setting: next, `CC(C)N1CCC(OC2CCN(c3ccc(C#N)nc3)CC2)CC1` [Example E80, 5-(4-{[1-(1-Methylethyl)-4-piperidinyl]oxy)-1-piperidinyl)-2-pyridinecarbonitrile hydrochloride]: at most 1 nM; `CNC(=O)c1cnc(N2CCC(OC3CCN(C4CCC4)CC3)CC2)cn1` [Example E70, 5-(4-[(1-Cyclobutyl-4-piperidinyl)oxy]-1-piperidinyl}-N-methyl-2-pyrazinecarboxamide butanedioate]: at most 1 nM.
Take `CC(C)N1CCC(OC2CCN(c3ccc(-c4ncco4)cc3)CC2)CC1` [Example E19]: the inhibition constant (Ki) on histamine H3 receptor was under 10 nM.
The same measure, in the same setting: in the case of `CC(C)N1CCC(OC2CCN(c3ccc(C(=O)NCCCCl)cc3)CC2)CC1` [Example E106, N-(3-Chloropropyl)-4-(4-{[1-(1-methylethyl)-4-piperidinyl]oxy}-1-piperidinyl)benzamide hydrochloride] it was at most 1 nM.
Same read-out and setting: in the case of `CC(C)N1CCC(OC2CCN(c3ccc(-c4nnc(-c5ccccc5)o4)cc3)CC2)CC1` [Example E26] it was at most 1 nM; in that of `Cc1noc(-c2ccc(N3CCC(OC4CCN(C5CCC5)CC4)CC3)cc2)n1` [Example E28], at most 1 nM.
As to `CC(=O)c1ccc(N2CCC(OC3CCN(C4CCC4)CC3)CC2)cn1` [Example E111, 1-(5-{4-[(1-Cyclobutyl-4-piperidinyl)oxy]-1-piperidinyl}-2-pyridinyl)ethanone], the Ki at histamine H3 receptor was at most 1 nM.
The same measure, in the same setting: in the case of `CNC(=O)c1cnc(N2CCC(OC3CCN(C(C)C)CC3)CC2)cn1` [Example E75] it was at most 1 nM; in that of `CNC(=O)c1ccc(N2CCC(OC3CCN(C(C)C)CC3)CC2)nc1` [Example E50], under 10 nM.
On the same count and under the same terms, in the case of `CC(C)N1CCC(OC2CCN(c3ccc(C(=O)N4CCCC4)nc3)CC2)CC1` [Example E33] it was at most 1 nM; in that of `Cc1nc(-c2ccc(N3CCC(OC4CCN(C5CCC5)CC4)CC3)cc2)co1` [Example E16, 1-Cyclobutyl-4-({1-[4-(2-methyl-1,3-oxazol-4-yl)phenyl]-4-piperidinyl}oxy)piperidine hydrochloride], at most 1 nM.
